Experimental data taken from patent publication US20050100577A1, “Expandable medical device with beneficial agent matrix formed by a multi solvent system” (priority 2003, published 2005).

How the values were obtained:
[1] = Text: A second drug, such as paclitaxel, which is soluble in anisole can be provided in the top layers. Therefore, the arrangement shown in FIG. 4 can include 2-CdA in the first therapeutic agent layer 60 and paclitaxel in the second therapeutic agent layer 70.
[2] = cited from earlier work

Nc1nc(Cl)nc2c1ncn2[C@H]1C[C@H](O)[C@@H](CO)O1 [2-CdA, 2-chlorodeoxyadenosine]
solubility in first solvent, DMSO [1]: very soluble
solubility in second solvent, anisole [1]: marginal solubility
water solubility [2]: about 4.5 mg/ml
